Reference: US8765688B2, “Anti-dandruff compositions containing peptides” (priority 2007, dated 2014)
Ends that are not written are not given here.

Key:
Type in all cases: cell-based
[1] = tested on: Malassezia furfur; assay: Growth inhibition of Malassezia furfur with equal concentrations (% by weight) of P18, Zincpyrithione, Climbazole and Ketoconazole, CFU; conditions: for colony-forming units: 50 μM final conc., mean ± SD
Procedure: (§1) Growth medium: M472-Pityrosporum medium according to DSMZ
(§2) The components were sterilized at 121° C., 1 bar superatmospheric pressure for 20 minutes.
(§3) 2 g/L of olive oil (sterilized by filtration and, after autoclaving, added to the other components)
(§4) Since it was a two-phase medium, the complete medium was treated with sonication in order to enlarge the phase boundary.
(§5) For agar plates, if appropriate, 150 g/L of agar agar were added to the medium.
(§6) The growth test was carried out as follows: A shake flask with M472-Pityrosporum medium was inoculated with M. furfur and incubated with shaking overnight at 30° C. and 200 rpm.
A 96-well microtiter plate was filled with in each case 100 μl of M472-Pityrosporum medium and inoculated with M. furfur suspension of the overnight culture. The M. furfur suspension was adjusted at the start of the experiment to an optical density, measured at 600 nm, of 0.02. The concentrates of the inhibitor solutions were 1 mM in DMSO for the peptide P18 and 10 mM in DMSO for Zincpyrithione, Ketoconazole and Climbazole. The DMSO final concentrations were maintained the same in all experiments. This means that a corresponding volume of DMSO was added to the mixture in the case of a higher concentration of Zincpyrithione, Ketoconazole or Climbazole concentrate in order to ensure comparability to the mixtures containing P18.
The growth of the following batches was compared by measuring the optical density:
M. furfur suspension and addition of P18 solution with a final concentration of 50 μM (equal to 0.0115% (w/w))
M furfur suspension and addition of Zincpyrithione (ZPT) solution with a final concentration of 362 μM (comparison to the mixture containing 50 μM of the peptide P18)
M furfur suspension and addition of Ketoconazole solution with a final concentration of 216 μM (comparison to the mixture containing 50 μM of the peptide P18)
M furfur suspension and addition of Climbazole solution with a final concentration of 390 μM (comparison to the mixture containing 50 μM of the peptide P18)
(§7) The microtiter plate was incubated with shaking at 30° C.
After 24 hours of incubation, the colony-forming units (CFU) were determined by plating out 10 μl of medium from each of the suspensions on agar plates. After incubation for 6 days, the colonies on the plates were counted. The CFU was determined in order to exclude an influence of the two-phase medium and also the growth form of M. furfur on the optical density. The experiments were carried out in at least two independent experiments, each with double determination.

[2] = tested on: Malassezia furfur; assay: Kinetics of the effect of P18 on M. furfur in the presence of a shampoo basic formulation, CFU; conditions: 2.3-0.23 g/l, 5 min to 24 hours, 10% (v/v) formulation 31-3
Procedure: The effect of the peptide […]; carboxy-terminal end amidated; […] The experiments were carried out as follows: The following shampoo basic formulation was prepared: The components Texapon NSO and Tego Betain L7 were mixed and dissolved. The pH was adjusted to pH 6-7 with NaOH. The effect of P18, ZPT and Climbazole against M. furfur was analyzed as follows: Growth medium: […]-Pityrosporum medium according to DSMZ 40 g/L malt extract 20 g/L ox bile 10 g/L Tween 40 The components were sterilized at 121° C., 1 bar superatmospheric pressure for 20 minutes. 2 g/L of olive oil (sterilized by filtration and, after autoclaving, added to the other components) Since it was a two-phase medium, the complete medium was treated with sonication in order to enlarge the phase boundary. For agar plates, if appropriate, […] of agar agar were added to the medium. The growth test was carried out as follows: […]. furfur and incubated with shaking overnight at 30° C. and 200 rpm. A 96-well microtiter plate was filled with in each case 100 μl of […]. furfur suspension of the overnight culture. […] The peptide P18 was dissolved in water with a concentration of 230 g/l. […] The microtiter plate was incubated with shaking at 30° C.

[3] = tested on: Malassezia furfur; assay: Long-term stability of P18 (12 weeks at 37° C.) tested on Malassezia furfur, CFU; conditions: for colony-forming units: mean ± SD
Procedure: Since storage over longer time periods may be necessary, in the following a 1 mM P18 peptide solution (P18 sequence H-KWKLFKKIPKFLHLAKKF-NH2; SEQ ID NO: 3) was stored for 12 weeks at 37° C. and the antifungal activity of the stored solution on Malassezia furfur was compared to the activity of a freshly prepared 1 mM P18 peptide solution. This was done through a growth test, which was carried out as follows:
as §1, §2, §3, §4, §5, §6
A 96-well microtiter plate was filled with in each case 100 μl of M472-Pityrosporum medium and inoculated with M. furfur suspension of the overnight culture. The M. furfur suspension was adjusted at the start of the experiment to an optical density, measured at 600 nm, of 0.02. The concentrates of the inhibitor solutions were 1 mM in water.
The growth of the following batches was compared:
M. furfur suspension without the addition of an inhibitor.
M. furfur suspension and addition of a fresh aqueous P18 solution with a final concentration of 50 μM.
M. furfur suspension and addition of a fresh aqueous P18 solution with a final concentration of 25 μM.
M. furfur suspension and addition of a P18 solution that had been stored at 37° C. for 12 weeks, with a final concentration of 50 μM.
M. furfur suspension and addition of a P18 solution that had been stored at 37° C. for 12 weeks, with a final concentration of 25 μM.
as §7
The growth was observed over 24 hours by measuring the optical density. The colony-forming units (CFU) were then determined by plating out 1 μl and 5 μl from each of the suspensions and, after incubation for 6 days, counting the colonies. The CFU was determined in order to exclude an influence of the two-phase medium and also the growth form of M. furfur on the optical density. The experiments were carried out at least in triple determinations.

KWKLFKKIPKFLHLAKKF-NH2 [P18, KWKLFKKIPKFLHLAKKF-NH2]
reduction of CFU compared to reference substances ([1]; 50 μM (0.0115% (w/w)), equal % by weight, 24 hours): more effectively than the reference substances Zincpyrithione, Climbazole and Ketoconazole
colony-forming units ([1]; incubation time 24 h): 1 ± 1
colony-forming units ([1]; incubation time 40 h): 0 ± 0
effect on M. furfur in the presence of shampoo basic formulation (in words) [2]: superior characteristics as compared to Zincpyrithione or Climbazole
influence of storage on the activity of the P18 peptide solution ([3]; 1 mM solution stored for 12 weeks at 37° C.): has not influenced the activity
colony-forming units ([3]; aqueous P18 solution stored 12 weeks at 37° C., 25 μM final conc., incubation time 16-18 h): 6 ± 7
colony-forming units ([3]; aqueous P18 solution stored 12 weeks at 37° C., 25 μM final conc., incubation time 24 h): 5 ± 5
colony-forming units ([3]; aqueous P18 solution stored 12 weeks at 37° C., 50 μM final conc., incubation time 16-18 h): 0 ± 0
colony-forming units ([3]; aqueous P18 solution stored 12 weeks at 37° C., 50 μM final conc., incubation time 24 h): 1 ± 1
colony-forming units ([3]; fresh aqueous P18 solution, 25 μM final conc., incubation time 16-18 h): 5 ± 8
colony-forming units ([3]; fresh aqueous P18 solution, 25 μM final conc., incubation time 24 h): 1 ± 2
colony-forming units ([3]; fresh aqueous P18 solution, 50 μM final conc., incubation time 16-18 h): 0 ± 0
colony-forming units ([3]; fresh aqueous P18 solution, 50 μM final conc., incubation time 24 h): 1 ± 1
